In the oligonucleotide strings, read from the 5' end, every base follows the letter of its sugar. An asterisk marks phosphorothioate; unmarked linkages are phosphodiester. Other units and linkages are bracketed, terminal groups are in braces. A string of capitals states the bases alone. e = 2'-O-(2-methoxyethyl) (MOE); [5mC] = 5-methylcytosine; d = 2'-deoxy (DNA)
What was measured:
Format in all cases: cell-based, human
adipocytes = assay: Triglyceride accumulation assay in adipocytes; settings: for TG: Table 20, adipocyte differentiation assay as in Example 13
Glut4 = Glut4 mRNA expression in adipocytes (real-time PCR); settings: for Glut4: Table 20, adipocyte differentiation assay as in Example 13
aP2 = aP2 mRNA expression in adipocytes (real-time PCR); settings: for aP2 mRNA: Table 75; for AP2: Table 20, adipocyte differentiation assay as in Example 13
PPARγ = PPARγ mRNA expression in adipocytes (real-time PCR); settings: for PPAR gamma: Table 20, adipocyte differentiation assay as in Example 13
HSL = HSL mRNA expression in adipocytes (real-time PCR); settings: for HSL: Table 20, adipocyte differentiation assay as in Example 13
[1] = Table 18, differentiating adipocytes, control = treatment with ISIS 342673
[2] = differentiating adipocytes transfected with oligomeric compound, Table 75
[3] = differentiating adipocytes transfected with oligomeric compound
[4] = Table 17, differentiating adipocytes, control = treatment with ISIS 342673

Substance	TG (triglyceride accumulation) (adipocytes; [1])	GLUT4 mRNA (Glut4; [1])	GLUT4 mRNA (Glut4; [2])	AP2 mRNA (aP2; [1])	aP2 mRNA (aP2; [3])	PPAR gamma mRNA (PPARγ; [1])	PPAR gamma mRNA (PPARγ; [2])	HSL mRNA (HSL; [1])	HSL mRNA (HSL; [2])	TG (triglyceride accumulation) (adipocytes; [2])	also measured
341806 (antisense GCCAATATTTCTGTGCTGCTA; all 2'-MOE, all phosphorothioate, methylation of C not given here) [compound 341806]	83.2 percentage of control	69.4 percentage of control	58 percentage of untreated control (UTC)	75.8 percentage of control	83 percentage of untreated control (UTC)	72.6 percentage of control	70 percentage of untreated control (UTC)	73.4 percentage of control	77 percentage of untreated control (UTC)	–	–
328123 (antisense eT*eT*eA*e[5mC]*eA*eG*eG*eT*eG*e[5mC]*eT*eG*e[5mC]*eA*eA*e[5mC]*eT*eG*eG*eA*eA) [compound 328123]	–	–	129 percentage of untreated control (UTC)	–	119 percentage of untreated control (UTC)	–	88 percentage of untreated control (UTC)	–	91 percentage of untreated control (UTC)	54 percentage of untreated control (UTC)	TG (triglyceride accumulation) (adipocytes; [4]): 120.8 percentage of control; GLUT4 mRNA (Glut4; [4]): 162.4 percentage of control; AP2 mRNA (aP2; [4]): 106.7 percentage of control; PPAR gamma mRNA (PPARγ; [4]): 74.7 percentage of control; HSL mRNA (HSL; [4]): 85.4 percentage of control
338664 (antisense e[5mC]*eA*eG*eA*e[5mC]*eT*e[5mC]*e[5mC]*e[5mC]*eA*eA*e[5mC]*eT*eG*eA*e[5mC]*e[5mC]*eA*eG*eA) [compound 338664]	–	–	–	–	–	–	–	–	–	–	TG (adipocytes): 1.42; Glut4 (Glut4): 1.81; AP2 (aP2): 1.01; PPAR gamma (PPARγ): 0.86; HSL (HSL): 0.76
328362 (eT*eG*eT*eG*eT*dT*dT*dT*d[5mC]*dT*dG*dA*d[5mC]*dT*d[5mC]*eA*eG*eT*e[5mC]*eA) [compound 328362]	–	–	–	–	–	–	–	–	–	–	TG (triglyceride accumulation) (adipocytes; [3]): 73 percentage of untreated control (UTC); GLUT4 mRNA (Glut4; [3]): 80 percentage of untreated control (UTC); AP2 mRNA (aP2; [3]): 59 percentage of untreated control (UTC); PPAR gamma mRNA (PPARγ; [3]): 78 percentage of untreated control (UTC); HSL mRNA (HSL; [3]): 83 percentage of untreated control (UTC)
328136 (eA*eA*e[5mC]*eT*eA*e[5mC]*eT*eT*e[5mC]*e[5mC]*eA*eG*eA*eG*e[5mC]*eA*eG*eG*eT*eG*eA; anti-miR) [compound 328136]	–	–	35 percentage of untreated control (UTC)	–	57 percentage of untreated control (UTC)	–	54 percentage of untreated control (UTC)	–	37 percentage of untreated control (UTC)	26 percentage of untreated control (UTC)	TG (triglyceride accumulation) (adipocytes; [4]): 47.0 percentage of control; GLUT4 mRNA (Glut4; [4]): 66.7 percentage of control; AP2 mRNA (aP2; [4]): 73.0 percentage of control; PPAR gamma mRNA (PPARγ; [4]): 72.7 percentage of control; HSL mRNA (HSL; [4]): 65.0 percentage of control
327912 (antisense eA*eA*e[5mC]*eT*eA*eT*eA*e[5mC]*eA*eA*eT*e[5mC]*eT*eA*e[5mC]*eT*eA*e[5mC]*e[5mC]*eT*e[5mC]*eA) [compound 327912]	107.4 percentage of control	89.0 percentage of control	79 percentage of untreated control (UTC)	90.1 percentage of control	101 percentage of untreated control (UTC)	76.9 percentage of control	78 percentage of untreated control (UTC)	90.6 percentage of control	95 percentage of untreated control (UTC)	112 percentage of untreated control (UTC)	–
341803 (antisense CCACACACTTCCTTACATTCCA; all 2'-MOE, all phosphorothioate, methylation of C not given here) [compound 341803]	85.9 percentage of control	86.8 percentage of control	73 percentage of untreated control (UTC)	77.3 percentage of control	85 percentage of untreated control (UTC)	71.2 percentage of control	68 percentage of untreated control (UTC)	75.5 percentage of control	79 percentage of untreated control (UTC)	–	–
328115 (antisense eA*eG*eA*eA*eG*eG*eT*eG*eG*eG*eG*eA*eG*e[5mC]*eA*eG*e[5mC]*eG*eT*e[5mC]*eA) [compound 328115]	108.7 percentage of control	132.0 percentage of control	84 percentage of untreated control (UTC)	80.0 percentage of control	74 percentage of untreated control (UTC)	95.8 percentage of control	80 percentage of untreated control (UTC)	89.0 percentage of control	75 percentage of untreated control (UTC)	53 percentage of untreated control (UTC)	–
328138 (eG*eA*eG*e[5mC]*eT*eG*e[5mC]*eT*e[5mC]*eA*eG*e[5mC]*eT*eG*eG*e[5mC]*e[5mC]*eA*eT*e[5mC]*eA; anti-miR) [compound 328138]	–	–	52 percentage of untreated control (UTC)	–	52 percentage of untreated control (UTC)	–	63 percentage of untreated control (UTC)	–	56 percentage of untreated control (UTC)	80 percentage of untreated control (UTC)	TG (triglyceride accumulation) (adipocytes; [4]): 100.6 percentage of control; GLUT4 mRNA (Glut4; [4]): 86.8 percentage of control; AP2 mRNA (aP2; [4]): 85.3 percentage of control; PPAR gamma mRNA (PPARγ; [4]): 83.8 percentage of control; HSL mRNA (HSL; [4]): 89.8 percentage of control
341804 (antisense ATCTGCACTGTCAGCACTTT; all 2'-MOE, all phosphorothioate, methylation of C not given here) [compound 341804]	60.9 percentage of control	73.6 percentage of control	62 percentage of untreated control (UTC)	70.8 percentage of control	78 percentage of untreated control (UTC)	74.1 percentage of control	71 percentage of untreated control (UTC)	71.6 percentage of control	75 percentage of untreated control (UTC)	–	–
328677 (eT*e[5mC]*e[5mC]*eT*eG*dG*dA*dT*dG*dA*dT*dA*dT*d[5mC]*dT*eA*e[5mC]*e[5mC]*eT*e[5mC]; antisense) [compound 328677]	–	–	–	–	–	–	–	–	–	–	TG (triglyceride accumulation) (adipocytes; [3]): 34 percentage of untreated control (UTC); GLUT4 mRNA (Glut4; [3]): 44 percentage of untreated control (UTC); AP2 mRNA (aP2; [3]): 61 percentage of untreated control (UTC); PPAR gamma mRNA (PPARγ; [3]): 89 percentage of untreated control (UTC); HSL mRNA (HSL; [3]): 68 percentage of untreated control (UTC)
328382 (e[5mC]*eA*eG*eA*e[5mC]*dT*d[5mC]*d[5mC]*d[5mC]*dA*dA*d[5mC]*dT*dG*dA*e[5mC]*e[5mC]*eA*eG*eA) [compound 328382]	–	–	–	–	–	–	–	–	–	–	TG (adipocytes): 0.72; Glut4 (Glut4): 0.85; AP2 (aP2): 0.89; PPAR gamma (PPARγ): 0.96; HSL (HSL): 0.75
341807 (antisense CTGGGACTTTGTAGGCCAGTT; all 2'-MOE, all phosphorothioate, methylation of C not given here) [compound 341807]	114.1 percentage of control	119.5 percentage of control	101 percentage of untreated control (UTC)	74.8 percentage of control	82 percentage of untreated control (UTC)	86.2 percentage of control	83 percentage of untreated control (UTC)	96.8 percentage of control	102 percentage of untreated control (UTC)	–	–
328111 (antisense eT*e[5mC]*e[5mC]*eG*eA*eG*eT*e[5mC]*eG*eG*eA*eG*eG*eA*eG*eG*eA*eG*eG*eA*eA) [compound 328111]	101.9 percentage of control	59.6 percentage of control	50 percentage of untreated control (UTC)	71.5 percentage of control	79 percentage of untreated control (UTC)	74.9 percentage of control	65 percentage of untreated control (UTC)	69.5 percentage of control	77 percentage of untreated control (UTC)	65 percentage of untreated control (UTC)	–
328137 (eG*eT*eA*eA*eG*e[5mC]*eG*e[5mC]*eA*eG*e[5mC]*eT*e[5mC]*e[5mC]*eA*e[5mC]*eA*eG*eG*e[5mC]*eT; anti-miR) [compound 328137]	–	–	29 percentage of untreated control (UTC)	–	45 percentage of untreated control (UTC)	–	36 percentage of untreated control (UTC)	–	25 percentage of untreated control (UTC)	37 percentage of untreated control (UTC)	TG (triglyceride accumulation) (adipocytes; [4]): 83.2 percentage of control; GLUT4 mRNA (Glut4; [4]): 88.5 percentage of control; AP2 mRNA (aP2; [4]): 99.6 percentage of control; PPAR gamma mRNA (PPARγ; [4]): 85.7 percentage of control; HSL mRNA (HSL; [4]): 86.3 percentage of control

From patent publication US8178506B2, “Oligomeric compounds and compositions for use in modulation of small non-coding RNAs” (Regulus Therapeutics Inc., priority 2003, dated 2012)
